In patent US10377709B2, “Carboxamide derivatives and the use thereof as medicaments for the treatment of hepatitis B” (Janssen Sciences Ireland UC, priority 2013, dated 2019):

Experiments:
[1] = test system: HBV; test: Anti-HBV activity in HepG2.117 inducible HBV producing cell line (intracellular HBV DNA, realtime PCR); format: cell-based, Hepatitis B virus; details: HepG2.117 cells (Tet-off), 3 days of treatment, intracellular HBV DNA by realtime PCR
[2] = test system: HepG2 cells; test: Cytotoxicity in HepG2 cells (Resazurin assay); format: cell-based; details: incubated 4 days, viability by Resazurin assay
[3] = test system: HBV; test: Anti-HBV activity in HepG2.2.15 stable transfected cell line (HBV DNA from secreted virions, realtime PCR); format: cell-based, Hepatitis B virus; details: HepG2.2.15 cells, 6 days of treatment, HBV DNA from secreted virions by realtime PCR
[4] = Cytotoxicity in HepG2 cells (Resazurin assay); format: cell-based; details: human, incubated 4 days, viability by Resazurin assay
[5] = Hepatitis B virus, HepG2.117, 72 h
[6] = Hepatitis B virus, HepG2.2.15, 144 h

With `Cc1cc(NC(=O)C2CC(C)N(C(=O)C(=O)NC3(C)COC3)C2)ccc1F` (single isomer, unassigned) [Compound 17b, N-(4-fluoro-3-methylphenyl)-5-methyl-1-(2-((3-methyloxetan-3-yl)amino)-2-oxoacetyl)pyrrolidine-3-carboxamide] the EC50 [1] was 0.796 µM, the CC50 [2] was greater than 25 µM and the EC50 [3] was 0.918 µM.

Work on `Cc1cc(NC(=O)C2CC(C)N(C(=O)C(=O)NC3(C)COC3)C2)ccc1F` (single isomer, unassigned) [Compound 17c, N-(4-fluoro-3-methylphenyl)-5-methyl-1-(2-((3-methyloxetan-3-yl)amino)-2-oxoacetyl)pyrrolidine-3-carboxamide] yielded an EC50 [1] greater than 1 µM, a CC50 [2] greater than 25 µM and an EC50 [3] greater than 1 µM.

`Cc1cc(NC(=O)C2CC(C)N(C(=O)C(=O)NC3(C)COC3)C2)ccc1F` (single isomer, unassigned) [Compound 17d, N-(4-fluoro-3-methylphenyl)-5-methyl-1-(2-((3-methyloxetan-3-yl)amino)-2-oxoacetyl)pyrrolidine-3-carboxamide] gave an EC50 [1] of 0.032 µM, a CC50 [2] greater than 25 µM and an EC50 [3] of 0.07 µM.

`CC(C)NC(=O)C(=O)N1CCC(C(=O)Nc2cc(F)c(F)c(Cl)c2)[C@@H]1C` (single isomer, unassigned) [Compound 29b] showed an EC50 [1] greater than 1 µM, a CC50 [2] greater than 25 µM and an EC50 [3] greater than 1 µM.

`CC1C(C(=O)Nc2ccc(F)c(Cl)c2F)CCCN1C(=O)C(=O)N[C@H](C)C(F)(F)F` (single isomer, unassigned) [Compound 35b] gave an EC50 [1] of 0.483 µM, a CC50 [2] greater than 25 µM and an EC50 [3] of 0.195 µM.

Compound `CC1C(C(=O)Nc2ccc(F)c(Cl)c2F)CCCN1C(=O)C(=O)N[C@H](C)C(F)(F)F` (single isomer, unassigned) [Compound 35c] has an EC50 [1] greater than 1 µM, a CC50 [2] greater than 25 µM and an EC50 [3] greater than 1 µM.

For `CC1C(C(=O)Nc2ccc(F)c(Cl)c2F)CCCN1C(=O)C(=O)N[C@H](C)C(F)(F)F` (single isomer, unassigned) [Compound 35d], the EC50 [1] was greater than 1 µM, the CC50 [2] was greater than 25 µM and the EC50 [3] was greater than 1 µM.

With `C[C@@H](NC(=O)C(=O)N1CC[C@H](C(=O)Nc2ccc(F)c(C(F)(F)F)c2)C1)C(F)(F)F` [Compound 14, (S)-N-(4-fluoro-3-(trifluoromethyl)phenyl)-1-(2-oxo-2-(((R)-1,1,1-trifluoropropan-2-yl)amino)acetyl)pyrrolidine-3-carboxamide] the EC50 [1, 5] was 0.045 µM, the CC50 at 4 days [4] was greater than 25 µM and the EC50 [3, 6] was 0.064 µM.

Work on `C[C@@H](NC(=O)C(=O)N1CC[C@H](C(=O)Nc2ccc(F)c(Cl)c2)C1)C(F)(F)F` [Compound 15, (S)-N-(3-chloro-4-fluorophenyl)-1-(2-oxo-2-(((R)-1,1,1-trifluoropropan-2-yl)amino)acetyl)pyrrolidine-3-carboxamide] yielded an EC50 [1, 5] of 0.047 µM, a CC50 at 4 days [4] greater than 25 µM and an EC50 [3, 6] of 0.025 µM.

`CC(C)(NC(=O)C(=O)N1CC[C@H](C(=O)Nc2cc(F)c(F)c(Cl)c2)C1)C(F)(F)F` [Compound 16, (S)-N-(3-chloro-4,5-difluorophenyl)-1-(2-oxo-2-((1,1,1-trifluoro-2-methylpropan-2-yl)amino)acetyl)pyrrolidine-3-carboxamide] gave an EC50 [1, 5] of 0.035 µM, a CC50 at 4 days [4] greater than 25 µM and an EC50 [3, 6] of 0.058 µM.

For `CC(C)(C)NC(=O)C(=O)N1CC[C@H](C(=O)Nc2ccc(F)c(Cl)c2F)C1` [Compound 19, (3S)-1-[2-(tert-butylamino)-2-oxo-acetyl]-N-(3-chloro-2,4-difluoro-phenyl)pyrrolidine-3-carboxamide], the EC50 [1, 5] was 0.449 µM, the CC50 at 4 days [4] was greater than 25 µM and the EC50 [3, 6] was 0.496 µM.

`CC(C)(C)NC(=O)C(=O)N1CC[C@H](C(=O)Nc2ccc(F)c(C#N)c2)C1` [Compound 20, (3S)-1-[2-(tert-butylamino)-2-oxo-acetyl]-N-(3-cyano-4-fluorophenyl)-pyrrolidine-3-carboxamide] showed an EC50 [1, 5] of 0.645 µM, a CC50 at 4 days [4] greater than 25 µM and an EC50 [3, 6] of 0.289 µM.

In the case of `C[C@@H](NC(=O)C(=O)N1CC[C@H](C(=O)Nc2ccc(F)c(Cl)c2F)C1)C(F)(F)F` [Compound 21, (3S)-N-(3-chloro-2,4-difluoro-phenyl)-1-[2-oxo-2-[[(1R)-2,2,2-trifluoro-1-methyl-ethyl]amino]acetyl]pyrrolidine-3-carboxamide], the EC50 [1, 5] is reported as 0.063 µM, the CC50 at 4 days [4] is reported as greater than 25 µM and the EC50 [3, 6] is reported as 0.063 µM.

With `C[C@@H](NC(=O)C(=O)N1CC[C@H](C(=O)Nc2ccc(F)c(C#N)c2)C1)C(F)(F)F` [Compound 22, (3S)-N-(3-cyano-4-fluoro-phenyl)-1-[2-oxo-2-[[(1R)-2,2,2-trifluoro-1-methyl-ethyl]amino]acetyl]pyrrolidine-3-carboxamide] the EC50 [1, 5] was 0.128 µM, the CC50 at 4 days [4] was greater than 25 µM and the EC50 [3, 6] was 0.11 µM.

Compound `CC(C)NC(=O)C(=O)N1CC[C@H](C(=O)Nc2ccc(F)c(C(F)(F)F)c2)C1` [Compound 23, (3S)-N-[4-fluoro-3-(trifluoromethyl)phenyl]-1-[2-(isopropylamino)-2-oxo-acetyl]pyrrolidine-3-carboxamide] has an EC50 [1, 5] of 0.575 µM, a CC50 at 4 days [4] greater than 25 µM and an EC50 [3, 6] of 0.38 µM.

In the case of `CC[C@@H](C)NC(=O)C(=O)N1CC[C@H](C(=O)Nc2ccc(F)c(C(F)(F)F)c2)C1` [Compound 24, (3S)-N-[4-fluoro-3-(trifluoromethyl)phenyl]-1-[2-[[(1R)-1-methylpropyl]-amino]-2-oxo-acetyl]pyrrolidine-3-carboxamide], the EC50 [1, 5] is reported as 0.384 µM, the CC50 at 4 days [4] is reported as greater than 25 µM and the EC50 [3, 6] is reported as 0.134 µM.

Compound `O=C(NC1(C(F)(F)F)CC1)C(=O)N1CC[C@H](C(=O)Nc2ccc(F)c(Cl)c2)C1` [Compound 25, (3S)-N-(3-chloro-4-fluoro-phenyl)-1-[2-oxo-2-[[1-(trifluoromethyl)cyclopropyl]amino]acetyl]pyrrolidine-3-carboxamide] has an EC50 [1, 5] of 0.031 µM, a CC50 at 4 days [4] greater than 25 µM and an EC50 [3, 6] of 0.042 µM.

In the case of `C[C@H](NC(=O)C(=O)N1CC[C@H](C(=O)Nc2ccc(F)c(Cl)c2)C1)C(F)(F)F` [Compound 26, (3S)-N-(3-chloro-4-fluoro-phenyl)-1-[2-oxo-2-[[(1S)-2,2,2-trifluoro-1-methyl-ethyl]amino]acetyl]pyrrolidine-3-carboxamide], the EC50 [1, 5] is reported as 0.122 µM, the CC50 at 4 days [4] is reported as greater than 25 µM and the EC50 [3, 6] is reported as 0.168 µM.

For `CC(C)NC(=O)C(=O)N1CCC(C(=O)Nc2ccc(F)c(C#N)c2)[C@@H]1C` (stereo partly drawn) [Compound 27, (2S)-N-(3-cyano-4-fluoro-phenyl)-1-[2-(isopropylamino)-2-oxo-acetyl]-2-methyl-pyrrolidine-3-carboxamide], the EC50 [1, 5] was 0.126 µM, the CC50 at 4 days [4] was greater than 25 µM and the EC50 [3, 6] was 0.119 µM.

In the case of `CC(C)NC(=O)C(=O)N1CCC(C(=O)Nc2ccc(F)c(Cl)c2F)[C@@H]1C` (stereo partly drawn) [Compound 28, (2S)-N-(3-chloro-2,4-difluoro-phenyl)-1-[2-(isopropylamino)-2-oxo-acetyl]-2-methyl-pyrrolidine-3-carboxamide], the EC50 [1, 5] is reported as 0.083 µM, the CC50 at 4 days [4] is reported as greater than 25 µM and the EC50 [3, 6] is reported as 0.05 µM.

Work on `CC(C)NC(=O)C(=O)N1CCC(C(=O)Nc2cc(F)c(F)c(Cl)c2)[C@@H]1C` (stereo partly drawn) [Compound 29, (2S)-N-(3-chloro-4,5-difluoro-phenyl)-1-[2-(isopropylamino)-2-oxo-acetyl]-2-methyl-pyrrolidine-3-carboxamide] yielded an EC50 [1, 5] of 0.048 µM, a CC50 at 4 days [4] greater than 25 µM and an EC50 [3, 6] of 0.018 µM.

For `C[C@H](NC(=O)C(=O)N1CC[C@H](C(=O)Nc2ccc(F)c(C(F)F)c2)C1)C(F)(F)F` [Compound 30, (3S)-N-[3-(difluoromethyl)-4-fluoro-phenyl]-1-[2-oxo-2-[[(1 S)-2,2,2-trifluoro-1-methyl-ethyl]amino]acetyl]pyrrolidine-3-carboxamide], the EC50 [1, 5] was 0.125 µM, the CC50 at 4 days [4] was greater than 25 µM and the EC50 [3, 6] was 0.161 µM.

With `CC(C)NC(=O)C(=O)N1CC[C@H](C(=O)Nc2ccc(F)c(C(F)F)c2)C1` [Compound 31, (3S)-N-[3-(difluoromethyl)-4-fluoro-phenyl]-1-[2-(isopropylamino)-2-oxo-acetyl]pyrrolidine-3-carboxamide] the EC50 [1, 5] was 0.143 µM, the CC50 at 4 days [4] was greater than 25 µM and the EC50 [3, 6] was 0.134 µM.

Compound `C[C@@H](NC(=O)C(=O)N1CC[C@H](C(=O)Nc2cc(F)c(F)c(F)c2)C1)C(F)(F)F` [Compound 32, (3S)-1-[2-oxo-2-[[(1R)-2,2,2-trifluoro-1-methyl-ethyl]amino]acetyl]-N-(3,4,5-trifluorophenyl)pyrrolidine-3-carboxamide] has an EC50 [1, 5] of 0.052 µM, a melting point of 197.3 °C and a CC50 at 4 days [4] greater than 25 µM.
